This note sets out measurements from patent US9000050B2, “SHIP1 modulators and related methods” (The University of British Columbia, priority 2010, dated 2015).

One data set concerns the target T1, His-hSHIP1 enzyme (Homo sapiens, UniProt Q92835).
T1 construct: His
T1 sequence (Q92835 1-1189): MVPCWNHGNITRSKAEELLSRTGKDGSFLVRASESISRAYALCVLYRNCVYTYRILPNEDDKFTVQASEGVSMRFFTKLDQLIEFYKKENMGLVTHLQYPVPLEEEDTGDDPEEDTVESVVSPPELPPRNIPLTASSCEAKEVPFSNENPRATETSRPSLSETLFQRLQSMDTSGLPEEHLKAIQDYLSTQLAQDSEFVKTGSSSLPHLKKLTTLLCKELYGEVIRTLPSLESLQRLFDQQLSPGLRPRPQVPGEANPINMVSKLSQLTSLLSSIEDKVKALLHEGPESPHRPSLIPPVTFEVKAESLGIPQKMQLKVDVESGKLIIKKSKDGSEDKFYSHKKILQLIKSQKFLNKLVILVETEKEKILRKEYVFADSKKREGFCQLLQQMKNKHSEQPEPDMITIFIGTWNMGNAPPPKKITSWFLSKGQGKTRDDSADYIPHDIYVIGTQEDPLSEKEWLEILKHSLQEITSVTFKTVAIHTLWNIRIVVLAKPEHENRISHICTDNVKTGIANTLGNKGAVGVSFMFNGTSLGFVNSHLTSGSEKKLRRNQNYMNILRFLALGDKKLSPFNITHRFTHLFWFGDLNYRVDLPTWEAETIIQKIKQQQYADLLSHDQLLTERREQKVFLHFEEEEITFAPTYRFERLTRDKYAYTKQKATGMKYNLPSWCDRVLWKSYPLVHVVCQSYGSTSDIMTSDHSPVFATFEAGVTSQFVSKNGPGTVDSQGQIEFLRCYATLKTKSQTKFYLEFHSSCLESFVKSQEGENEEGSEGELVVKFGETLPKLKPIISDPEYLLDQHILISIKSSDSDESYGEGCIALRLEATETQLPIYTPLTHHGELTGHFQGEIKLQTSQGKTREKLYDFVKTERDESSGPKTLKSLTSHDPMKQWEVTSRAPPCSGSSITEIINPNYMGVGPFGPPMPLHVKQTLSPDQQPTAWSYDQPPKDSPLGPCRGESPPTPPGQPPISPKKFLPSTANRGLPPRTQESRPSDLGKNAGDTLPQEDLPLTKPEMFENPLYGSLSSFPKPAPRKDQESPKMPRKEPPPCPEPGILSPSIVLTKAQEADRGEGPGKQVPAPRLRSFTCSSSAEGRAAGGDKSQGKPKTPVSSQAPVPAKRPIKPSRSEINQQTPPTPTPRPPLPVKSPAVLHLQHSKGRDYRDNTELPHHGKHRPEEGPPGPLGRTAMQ
Put plainly: His-hSHIP1 enzyme activation assay (IP4 substrate, Biomol Green phosphate release). It counts as biochemical. The settings on record: percentage increase relative to background; concentrations ≦300 μM. How it is done: Test compounds are dissolved in 95% ethanol to form stock solutions. Before screening, the stock solutions are diluted with Phosphatase Assay Buffer (20 mM Tris-HCL, 10 mM MgCl2 pH 7.5, 0.02% Tween 20) to form working assay solutions that contain 10% ethanol. The assay is carried out on 96-well microtiter plates using a modified procedure of that reported by Ong et al., Blood 110, 1942-1949, 2007 and Yang et al., Org Lett 7, 1073-1076, 2005, both of which references are incorporated herein by reference in their entirety.
Each reaction contains 5 μL of His-hSHIP1 enzyme (15-20 ng), 10 μL of the substrate, 1,3,4,5-inositol tetrakisphosphate (IP4; 50 μM final), 5 μL of Phosphatase Assay Buffer, and 5 μL of test compound at various concentrations in 10% ethanol (0-300 μM final). Control blanks are also prepared by replacing His-hSHIP1 enzyme, IP4, or test compounds with Phosphatase Assay Buffer. After adding the reaction components in a 96-well microtiter plate on ice, the reaction is mixed by briefly shaking the plate vigorously. The reaction is then incubated at 37° C. for 15 min with gentle shaking followed by addition of 100 μL of Biomol Green Reagent (BIOMOL, PA, USA) to terminate the reaction. The free phosphate released from IP4 by His-hSHIP1 binds to the Biomol Green Reagent, which turns the dye to green color. After incubating the mixture for 20 min at room temperature for color development, the absorbance is read with SpectraMax Plus 96-well plate reader (Molecular Devices, Sunnyvale, Calif., USA) at a wavelength of 650 nm.
Percent (%) activation in Table 2 is expressed as a percentage increase relative to background. Scoring is expressed as follows: +(<25%); ++(≧25% but <50%); +++(≧50%).

A short description of data set [1]: Water solubility (24 h stirring in deionized water, HPLC). It counts as physicochemical. The settings on record: thermodynamic from solid, stirred 24 hours, read-out: Soluble Concentration. How it is done: Samples are weighed accurately in duplicate (˜3 mg each) in 4 mL glass vials. The appropriate amount of deionized water is added to obtain a final concentration of 6 mg/mL. A stir bar is placed in the vial and the two mixtures are stirred for 24 hours, after which the samples are filtered using a glass filter membrane. The resulting filtrate is centrifuged in a glass conical tube for 10 minutes at 10,000 rpm to sediment any precipitate that may have passed through the glass membrane. The supernatant is sampled for HPLC analysis. The concentration of the test compound is determined by HPLC using a six-point standard curve of the compound prepared in methanol.

Each structure is given as a SMILES string. ≈ marks a conversion by molar mass, not a printed value.

On to `Cc1cc(O)cc2c1[C@@]1(C)CC[C@@H]3C(C)(C)C(=O)CC[C@@]3(C)[C@@H]1C2` (racemic) [19a/19b], for which the “Activation of His-hSHIP1 Enzyme, Scoring (percent activation)” value (shortened to “Activation … (percent activation)”) on His-hSHIP1 enzyme is given as “++ (≧25% but <50%)”.

Consider `CC1(C)C(=O)CC[C@]2(C)[C@@H]1CC[C@]1(C)c3c(O)cc(O)cc3C[C@@H]21` (racemic) [7a/7b], for which, at His-hSHIP1 enzyme, the “Activation … (percent activation)” value is given as “+++ (≧50%)”.

Turning to `CC1(C)[C@@H](N)CC[C@]2(C)[C@H]3Cc4cc(O)cc(O)c4[C@]3(C)CC[C@@H]12` [Compound 9b], the “Activation … (percent activation)” value on His-hSHIP1 enzyme was “+ (<25%)”.

With `CC1(C)[C@@H](O)CC[C@]2(C)[C@H]3Cc4cc(O)cc(O)c4[C@]3(C)CC[C@@H]12` [Compound 16b, (3S,4aR,6aR,11aR,11bR)-2,3,4,4a,5,6,6a,11,11a,11b-decahydro-4,4,6a,11b-tetramethyl-1H-benzo[a]fluorene-3,7,9-triol], the solubility at 24 h in data set [1] came out at 133 µg/mL (≈ 402 µM).

`CC1(C)[C@H](O)CC[C@]2(C)[C@@H]1CC[C@]1(C)c3c(O)cc(O)cc3C[C@@H]21` (racemic) [16a/16b]: the “Activation … (percent activation)” value on His-hSHIP1 enzyme is listed as “++ (≧25% but <50%)”.

On to `COc1cc(C)c2c(c1)C[C@H]1[C@]3(C)CC[C@@H](O)C(C)(C)[C@H]3CC[C@]21C` (racemic) [17a/17b], for which the “Activation … (percent activation)” value at His-hSHIP1 enzyme was “++ (≧25% but <50%)”.

Consider `CC1(C)[C@H]2CC[C@]3(C)c4c(O)cc(O)cc4C[C@H]3[C@]2(C)CC[C@@H]1N.Cl` [8a•HCl, (3S,4aS,6aS,11aS,11bS)-3-Amino-4,4,6a,11b-tetramethyl-2,3,4,4a,5,6,6a,11,11a,11b-decahydro-1H-benzo[a]fluorene-7,9-diol Hydrochloride], for which the solubility at 24 h in data set [1] worked out at 1400 µg/mL. Besides, the “Activation … (percent activation)” value at His-hSHIP1 enzyme is reported as “+ (<25%)”.

As to `COc1cc2c(c(OC)c1)[C@@]1(C)CC[C@@H]3C(C)(C)[C@H](O)CC[C@@]3(C)[C@@H]1C2` (racemic) [5a/5b], the “Activation … (percent activation)” value at His-hSHIP1 enzyme is reported as “++ (≧25% but <50%)”.
